# Reference: US9359308B2, “Pyrazine kinase inhibitors” (Portola Pharmaceuticals, Inc., priority 2011, dated 2016)
# Target: T1, full length active recombinant SYK enzyme (Homo sapiens, UniProt P43405)
# T1 construct: full length active recombinant SYK enzyme (Millipore, Calif.); purchased Millipore
# Assay: Inhibition of Syk tyrosine phosphorylation activity (LANCE TR-FRET kinase assay)
# Assay type: biochemical
# Settings: activity in the Syk assays, class symbols
# Summary of the method: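 IC50 was derived by non-linear regression of TR-FRET signal (Eu-W1024-PY100 donor, streptavidin-APC acceptor) read 1 h after EDTA quench. The kinase step ran 1 h at room temperature with 1 nM full-length SYK, 550 nM biotinylated DEEDYESP substrate and 100 μM ATP in Tris pH 7.5/MgCl2/DTT at 3% final DMSO.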
row,Structure (SMILES),IC50
1,"CC[C@@H](Nc1cnc(C(N)=O)c(Nc2ccc(C(=O)N(C)C)cc2)n1)C(N)=O [Example 299, (R)-5-(1-amino-1-oxobutan-2-ylamino)-3-(4-(dimethylcarbamoyl)phenylamino)pyrazine-2-carboxamide]",100 to 1000 nM
2,"CC[C@@H](Nc1cnc(C(N)=O)c(Nc2ccc(C(=O)N3CCC3)nc2)n1)C(N)=O [Example 300, (R)-5-(1-amino-1-oxobutan-2-ylamino)-3-(6-(azetidine-1-carbonyl)pyridin-3-ylamino)pyrazine-2-carboxamide]",10 to 100 nM
3,"CC[C@@H](Nc1cnc(C(N)=O)c(Nc2ccc(C(=O)N3CC(F)(F)C3)nc2)n1)C(N)=O [Example 301, (R)-5-(1-amino-1-oxobutan-2-ylamino)-3-(6-(3,3-difluoroazetidine-1-carbonyl)pyridin-3-ylamino)pyrazine-2-carboxamide]",10 to 100 nM
4,"CC[C@@H](Nc1cnc(C(N)=O)c(Nc2ccnc(OC)c2)n1)C(N)=O [Example 302, (R)-5-(1-amino-1-oxobutan-2-ylamino)-3-(2-methoxypyridin-4-ylamino)pyrazine-2-carboxamide]",10 to 100 nM
5,"CC[C@@H](Nc1cnc(C(N)=O)c(Nc2ccc(N(C)C)nc2)n1)C(N)=O [Example 310, (R)-5-(1-amino-1-oxobutan-2-ylamino)-3-(6-(dimethylamino)pyridin-3-ylamino)pyrazine-2-carboxamide]",10 to 100 nM
6,"CC[C@@H](Nc1cnc(C(N)=O)c(Nc2cnc(OC)c(C)c2)n1)C(N)=O [Example 311, (R)-5-(1-amino-1-oxobutan-2-ylamino)-3-(6-methoxy-5-methylpyridin-3-ylamino)pyrazine-2-carboxamide]",10 to 100 nM
7,"COc1ccc(Nc2nc(N[C@H](CC(C)C)C(N)=O)cnc2C(N)=O)cn1 [Example 312, (R)-5-(1-amino-4-methyl-1-oxopentan-2-ylamino)-3-(6-methoxypyridin-3-ylamino)pyrazine-2-carboxamide]",1 to 10 nM
8,"CC(C)C[C@@H](Nc1cnc(C(N)=O)c(Nc2ccc(N(C)C)nc2)n1)C(N)=O [Example 313, (R)-5-(1-amino-4-methyl-1-oxopentan-2-ylamino)-3-(6-(dimethylamino)pyridin-3-ylamino)pyrazine-2-carboxamide]",10 to 100 nM
9,"CC[C@@H](Nc1cnc(C(N)=O)c(Nc2cnc(N(C)C)c(C)c2)n1)C(N)=O [Example 314, (R)-5-(1-amino-1-oxobutan-2-ylamino)-3-(6-(dimethylamino)-5-methylpyridin-3-ylamino)pyrazine-2-carboxamide]",100 to 1000 nM
10,"COc1cc(Nc2nc(N[C@@H](C(N)=O)C(C)C)cnc2C(N)=O)ccn1 [Example 315, (R)-5-(1-amino-3-methyl-1-oxobutan-2-ylamino)-3-(2-methoxypyridin-4-ylamino)pyrazine-2-carboxamide]",10 to 100 nM
11,"CC[C@@H](Nc1cnc(C(N)=O)c(Nc2ccc(OCC(F)(F)F)nc2)n1)C(N)=O [Example 316, (R)-5-(1-amino-1-oxobutan-2-ylamino)-3-(6-(2,2,2-trifluoroethoxy)pyridin-3-ylamino)pyrazine-2-carboxamide]",10 to 100 nM
12,"CC[C@@H](Nc1cnc(C(N)=O)c(Nc2ccc(OC)nc2)n1)C(N)=O [Example 317, (R)-5-(1-amino-1-oxobutan-2-ylamino)-3-(6-methoxypyridin-3-ylamino)pyrazine-2-carboxamide]",10 to 100 nM
13,"CC[C@@H](Nc1cnc(C(N)=O)c(Nc2ccc3nc(N(C)C)oc3c2)n1)C(N)=O [Example 318, (R)-5-(1-amino-1-oxobutan-2-ylamino)-3-(2-(dimethylamino)benzo[d]oxazol-6-ylamino)pyrazine-2-carboxamide]",10 to 100 nM
14,"CC[C@@H](Nc1cnc(C(N)=O)c(Nc2ccc(N3CCC3)nc2)n1)C(N)=O [Example 319, (R)-5-(1-amino-1-oxobutan-2-ylamino)-3-(6-(azetidin-1-yl)pyridin-3-ylamino)pyrazine-2-carboxamide]",10 to 100 nM
15,"CC[C@@H](Nc1cnc(C(N)=O)c(Nc2cc(C)ccn2)n1)C(N)=O [Example 320, (R)-5-(1-amino-1-oxobutan-2-ylamino)-3-(4-methylpyridin-2-ylamino)pyrazine-2-carboxamide]",> 1000 nM
16,"CC(C)C[C@@H](Nc1cnc(C(N)=O)c(Nc2ccc(C(=O)N3CC(C#N)C3)nc2)n1)C(N)=O [Example 321, (R)-5-(1-amino-4-methyl-1-oxopentan-2-ylamino)-3-(6-(3-cyanoazetidine-1-carbonyl)pyridin-3-ylamino)pyrazine-2-carboxamide]",1 to 10 nM
17,"CC[C@@H](Nc1cnc(C(N)=O)c(Nc2cncc(OC)c2)n1)C(N)=O [Example 322, (R)-5-(1-amino-1-oxobutan-2-ylamino)-3-(5-methoxypyridin-3-ylamino)pyrazine-2-carboxamide]",100 to 1000 nM
18,"COc1cncc(Nc2nc(N[C@H](CC(C)C)C(N)=O)cnc2C(N)=O)c1 [Example 323, (R)-5-(1-amino-4-methyl-1-oxopentan-2-ylamino)-3-(5-methoxypyridin-3-ylamino)pyrazine-2-carboxamide]",1 to 10 nM
19,"COc1ccc(Nc2nc(N[C@@H](C(N)=O)C(C)C)cnc2C(N)=O)cn1 [Example 326, (R)-5-(1-amino-3-methyl-1-oxobutan-2-ylamino)-3-(6-methoxypyridin-3-ylamino)pyrazine-2-carboxamide]",10 to 100 nM
20,"CC(C)[C@@H](Nc1cnc(C(N)=O)c(Nc2ccc(OCC(F)(F)F)nc2)n1)C(N)=O [Example 327, (R)-5-(1-amino-3-methyl-1-oxobutan-2-ylamino)-3-(6-(2,2,2-trifluoroethoxy)pyridin-3-ylamino)pyrazine-2-carboxamide]",100 to 1000 nM
21,"CC[C@@H](Nc1cnc(C(N)=O)c(Nc2ccc(C(=O)N3CC(C#N)C3)nc2)n1)C(N)=O [Example 329, (R)-5-(1-amino-1-oxobutan-2-ylamino)-3-(6-(3-cyanoazetidine-1-carbonyl)pyridin-3-ylamino)pyrazine-2-carboxamide]",1 to 10 nM
22,"COc1ccc(Nc2nc(N[C@@H]3CCCC(F)(F)[C@@H]3N)cnc2C(N)=O)cn1 [Example 330, 5-((1R,2R)-2-amino-3,3-difluorocyclohexylamino)-3-(6-methoxypyridin-3-ylamino)pyrazine-2-carboxamide]",100 to 1000 nM
23,"COc1cc(Nc2nc(N[C@@H]3CCCC(F)(F)[C@@H]3N)cnc2C(N)=O)ccn1 [Example 331, 5-((1R,2R)-2-amino-3,3-difluorocyclohexylamino)-3-(2-methoxypyridin-4-ylamino)pyrazine-2-carboxamide]",10 to 100 nM

# Continued, values first:
row,IC50,Structure (SMILES)
1,1 to 10 nM,"COc1ccc(Nc2nc(N[C@@H]3CCCC[C@@H]3N)cnc2C(N)=O)cn1 [Example 296, 5-((1R,2S)-2-aminocyclohexylamino)-3-(6-methoxypyridin-3-ylamino)pyrazine-2-carboxamide]"
2,1 to 10 nM,"NC(=O)c1ncc(N[C@@H]2CCCC[C@@H]2N)nc1Nc1ccc(C(=O)N2CC(F)(F)C2)nc1 [Example 297, 5-((1R,2S)-2-aminocyclohexylamino)-3-(6-(3,3-difluoroazetidine-1-carbonyl)pyridin-3-ylamino)pyrazine-2-carboxamide]"
3,10 to 100 nM,"CN(CC(F)(F)F)C(=O)c1ccc(Nc2nc(N[C@@H]3CCCC[C@@H]3N)cnc2C(N)=O)cc1 [Example 298, 5-((1R,2S)-2-aminocyclohexylamino)-3-(4-(methyl(2,2,2-trifluoroethyl)carbamoyl)phenylamino)pyrazine-2-carboxamide]"
4,10 to 100 nM,"NC(=O)c1ncc(N[C@@H]2CCCC[C@@H]2N)nc1Nc1cncnc1 [Example 303, 5-((1R,2S)-2-aminocyclohexylamino)-3-(pyrimidin-5-ylamino)pyrazine-2-carboxamide]"
5,10 to 100 nM,"NC(=O)c1ncc(N[C@@H]2CCCC[C@@H]2N)nc1Nc1ccc(F)nc1 [Example 304, 5-((1R,2S)-2-aminocyclohexylamino)-3-(6-fluoropyridin-3-ylamino)pyrazine-2-carboxamide]"
6,10 to 100 nM,"COc1ncc(Nc2nc(N[C@@H]3CCCC[C@@H]3N)cnc2C(N)=O)cn1 [Example 305, 5-((1R,2S)-2-aminocyclohexylamino)-3-(2-methoxypyrimidin-5-ylamino)pyrazine-2-carboxamide]"
7,1 to 10 nM,"COc1ncc(Nc2nc(N[C@@H]3CCCC[C@@H]3N)cnc2C(N)=O)cc1C [Example 306, 5-((1R,2S)-2-aminocyclohexylamino)-3-(6-methoxy-5-methylpyridin-3-ylamino)pyrazine-2-carboxamide]"
8,10 to 100 nM,"NC(=O)c1ncc(N[C@@H]2CCCC[C@@H]2N)nc1Nc1cccc(C(=O)N2CCC2)c1 [Example 307, 5-((1R,2S)-2-aminocyclohexylamino)-3-(3-(azetidine-1-carbonyl)phenylamino)pyrazine-2-carboxamide]"
9,1 to 10 nM,"CCOc1ccc(Nc2nc(N[C@@H]3CCCC[C@@H]3N)cnc2C(N)=O)cn1 [Example 308, 5-((1R,2S)-2-aminocyclohexylamino)-3-(6-ethoxypyridin-3-ylamino)pyrazine-2-carboxamide]"
10,1 to 10 nM,"COc1cncc(Nc2nc(N[C@@H]3CCCC[C@@H]3N)cnc2C(N)=O)c1 [Example 309, 5-((1R,2S)-2-aminocyclohexylamino)-3-(5-methoxypyridin-3-ylamino)pyrazine-2-carboxamide]"
11,1 to 10 nM,"CN1C(=O)Cc2cc(Nc3nc(N[C@@H]4CCCC[C@@H]4N)cnc3C(N)=O)ccc21 [Example 324, 5-((1R,2S)-2-aminocyclohexylamino)-3-(1-methyl-2-oxoindolin-5-ylamino)pyrazine-2-carboxamide]"
12,1 to 10 nM,"CN(C)c1nc2ccc(Nc3nc(N[C@@H]4CCCC[C@@H]4N)cnc3C(N)=O)cc2o1 [Example 325, 5-((1R,2S)-2-aminocyclohexylamino)-3-(2-(dimethylamino)benzo[d]oxazol-6-ylamino)pyrazine-2-carboxamide]"
13,< 1 nM,"Cc1cc(Nc2nc(N[C@@H]3CCCC[C@@H]3N)cnc2C(N)=O)sn1 [Example 328, 5-((1R,2S)-2-aminocyclohexylamino)-3-(3-methylisothiazol-5-ylamino)pyrazine-2-carboxamide]"
